Series [1] is described as follows: Test 3-1: metabolic stability test of human liver microsome (0.1 mg/mL). Format: in vitro ADME. The conditions noted are these: test compound 0.1 μmol/L, 37° C., 30 minutes. The essentials: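 Compound at 0.1 μmol/L incubated 30 min at 37 °C with human liver microsomes (0.1 mg/mL) and NADPH (3.2 mmol/L) in 25 mmol/L phosphate buffer, pH 7.4. Remaining parent measured by LC-MS; stability given as −ln(residual ratio)/time/microsome concentration (mL/min/mg protein).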

The nature of series [2]: Test 3-2: metabolic stability test of human liver microsome (0.5 or 1.0 mg/mL). Format: in vitro ADME. The conditions noted are these: test compound 0.1 μmol/L, 37° C., 30 minutes. The method, then:
Test 3-2: Metabolic Stability Test of Human Liver Microsome
In order to evaluate the metabolic stability of human liver microsomes more precisely, the stability of the present compounds for human liver microsome metabolism was evaluated with a suitable concentration of human liver microsome, as mentioned below. The used human liver microsome was obtained from Xenontech. Human liver microsome, NADPH, and each test compound were mixed in 25 mmol/L phosphate buffer solution (pH 7.4) to adjust each concentration as shown below, and the mixture was incubated at 37° C. for 30 minutes. • human liver microsome: 0.5 or 1.0 mg/mL • NAPDH: 3.2 mmol/L • test compound: 0.1 μmol/L
The residual ratio of the test compound in each sample after the incubation for 30 minutes was measured with a LC-MS, and the metabolic stability of human liver microsome was calculated about each test compound with the following formula. Metabolic stability of human liver microsome (mL/min/mg protein)=−LN (residual ratio)/“reaction time”/“concentration of human liver microsome”

The test system of a further series is ICR male mouse. The series can be described thus: Test 7: marble-burying behavior test. The format is in vivo. The method, then: Test 7: Marble-Burying Behavior Test
The effect of the present compound for obsessive-compulsive disorder-like behavior was evaluated in a manner mentioned below.
450-500 g of paper floorcloth was beded in a plastic cage (floor area: 778 cm^2), and 20 glass marbles were set on the paper floorcloth at regular intervals. To a 5-week-old ICR male mouse, the present compound was intraperitoneally administered with saline solution. 15 minutes after the administration, the mouse was made to softly enter the corner of the cage and move freely in the cage for 15 minutes. Then the mouse was taken out from the cage. The number of the marbles that were buried in the floorcloth was counted. The numbers in the solvent-administration group and the present compound-administration group were compared to be statistically processed.

The target in a further series is human 5-HT1A receptor (Homo sapiens (Human), UniProt P08908). The series can be described thus: Test 1: agonistic activity for human 5-HT1A receptor (aequorin/Gα16 luminescence in CHO-K1 cell). The format is cell-based. The essentials: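 Aequorin and Gα16 transiently co-expressed with each receptor in CHO-K1 cells, cultured 24 h at 37 °C. Compounds added from DMSO solution; agonism read as change in luminescence.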

Series [3] can be described thus: Test 4-2: predictive test of human half-life (monkey distribution volume, serum unbound fraction, Test 3-2 stability). The conditions noted are these: in vivo, predicted using Test 3-2 metabolic stability. The method, then: Test 4-2: Predictive Test of Human Half-Life
0.01 mol/L of the present compound in aqueous hydrochloric acid solution was parenterally administered to cynomolgus monkey. 5 minutes, 15 minutes, 30 minutes, 1 hour, 2 hours, 4 hours, 6 hours, and 24 hours after the administration, the blood was collected. The plasma was obtained from the collected blood, the drug concentration in the plasma was measured with a LC-MS, and the monkey distribution volume was calculated from the transition of the concentrations. The unbound fraction rate of the present compound in serum of human and monkey was measured by equilibrium dialysis method.
Using the monkey distribution volume, the unbound fraction rate in serum of human and monkey, and the result of the metabolic stability of human liver microsome which was obtained in Test 3-2, the half-life in human was calculated according to the formula below. “Human distribution volume”=“monkey distribution volume”×“unbound fraction rate in serum of human”/“unbound fraction rate in serum of monkey” “Human hepatic clearance”=(“human hepatic blood flow”×“unbound fraction rate in serum of human”×56.7×“metabolic stability of human liver microsome”)/(“human hepatic blood flow”+“unbound fraction rate in serum of human”×56.7×“metabolic stability of human liver microsome”) “Half-life in human”=0.693×“human distribution volume”/“human hepatic clearance”

The next series addresses hERG channel (Homo sapiens (Human), UniProt Q12809). The series is described as follows: Test 5-1: activity for inhibiting hERG channel (whole-cell patch clamp, hERG-CHO cell, Qpatch). As to conditions: read-out: hERG inhibition IC50. Format: cell-based. The method, then:
Test 5-1: Evaluation of Activity for Inhibiting hERG Channel
The activity of the present compound for inhibiting hERG channel was measured by whole-cell patch clamp method with auto patch clamp system, using CHO cell wherein hERG channel involved in human rapidly activating delayed rectifier potassium current (IKr) was forcibly expressed.
hERG-CHO cell purchased from ChanTest was incubated at 37° C. in a CO2 incubator, and the cell was exfoliated from the flask with trypsin to prepare a cell suspension, shortly before the hERG current measurement.
Extracellular fluid: 2 mmol/L CaCl2, 1 mmol/L MgCl2, 10 mmol/L HEPES, 4 mmol/L KCl, 145 mmol/L NaCl, 10 mmol/L glucose
Intracellular fluid: 5.4 mmol/L CaCl2, 1.8 mmol/L MgCl2, 10 mmol/L HEPES, 31 mmol/L KOH, 10 mmol/L EGTA, 120 mmol/L KCl, 4 mmol/L Na2-ATP
Test compound solution: The test compound was dissolved in DMSO by adjusting the concentration to 2 mmol/L or 20 mmol/L to prepare each test compound solution. […] (Measurement of Current Value and Data Analysis)
The cell suspension, the extracellular fluid, the intracellular fluid, and the measurement plate were set in an auto patch clamp system, and the hERG current was measured by whole-cell patch clamp method. […] Each pulse interval was 15 seconds. The data analysis was carried out with Qpatch Assay Software (Biolin Scientific). The test was carried out applying increscently 4 concentrations of each test compound, and the average of the peak tail currents that were obtained by the last 3 stimulations in each applied concentration was determined to be the evaluated data. By using the current inhibition rate for the pre-applied current at each concentration of each test compound, IC50 value was calculated by Hill equation with the software.

Series [4] addresses T1, human D4 receptor (Homo sapiens (Human), UniProt P21917). The series is described as follows: Test 2: binding activity to human D4 receptor ([3H] dopamine, CHO cell membrane). As to conditions: [3H] dopamine; read-out: D4 binding affinity (Ki value).
Series [5] concerns the target T1, human D4 receptor. The series can be described thus: Test 1: agonistic activity for human D4 receptor (aequorin/Gα16 luminescence in CHO-K1 cell). Format: cell-based.
Where [6] appears, read: CHO-K1, 100% = 10 μmol/L endogenous ligand.
[7] abbreviates: CHO-K1 cell, aequorin luminescence.

T1 sequence (P21917 whole entry): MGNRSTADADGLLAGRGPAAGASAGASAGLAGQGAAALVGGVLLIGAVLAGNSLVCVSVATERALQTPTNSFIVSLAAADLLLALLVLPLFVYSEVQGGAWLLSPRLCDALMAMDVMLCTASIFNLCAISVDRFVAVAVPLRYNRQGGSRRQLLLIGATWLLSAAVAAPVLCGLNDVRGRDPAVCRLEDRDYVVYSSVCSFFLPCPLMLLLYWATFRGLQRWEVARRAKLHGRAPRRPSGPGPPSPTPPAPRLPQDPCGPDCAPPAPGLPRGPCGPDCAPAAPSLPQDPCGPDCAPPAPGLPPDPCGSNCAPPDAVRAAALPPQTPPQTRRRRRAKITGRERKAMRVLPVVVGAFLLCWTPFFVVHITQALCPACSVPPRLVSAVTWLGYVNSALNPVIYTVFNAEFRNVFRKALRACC
Chain of human 5-HT1A receptor (P08908 whole entry): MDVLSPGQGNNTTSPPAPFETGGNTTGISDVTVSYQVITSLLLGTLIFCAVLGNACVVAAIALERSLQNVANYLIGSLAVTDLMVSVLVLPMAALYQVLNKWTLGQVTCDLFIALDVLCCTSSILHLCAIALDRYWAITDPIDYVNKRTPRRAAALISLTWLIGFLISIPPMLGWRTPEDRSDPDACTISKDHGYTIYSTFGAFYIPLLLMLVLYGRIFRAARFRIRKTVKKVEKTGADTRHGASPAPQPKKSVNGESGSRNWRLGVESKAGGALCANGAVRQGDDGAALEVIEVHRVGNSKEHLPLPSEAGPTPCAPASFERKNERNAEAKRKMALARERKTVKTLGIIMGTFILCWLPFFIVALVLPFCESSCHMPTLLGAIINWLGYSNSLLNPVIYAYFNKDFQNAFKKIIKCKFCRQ
Chain of hERG channel (Q12809 whole entry): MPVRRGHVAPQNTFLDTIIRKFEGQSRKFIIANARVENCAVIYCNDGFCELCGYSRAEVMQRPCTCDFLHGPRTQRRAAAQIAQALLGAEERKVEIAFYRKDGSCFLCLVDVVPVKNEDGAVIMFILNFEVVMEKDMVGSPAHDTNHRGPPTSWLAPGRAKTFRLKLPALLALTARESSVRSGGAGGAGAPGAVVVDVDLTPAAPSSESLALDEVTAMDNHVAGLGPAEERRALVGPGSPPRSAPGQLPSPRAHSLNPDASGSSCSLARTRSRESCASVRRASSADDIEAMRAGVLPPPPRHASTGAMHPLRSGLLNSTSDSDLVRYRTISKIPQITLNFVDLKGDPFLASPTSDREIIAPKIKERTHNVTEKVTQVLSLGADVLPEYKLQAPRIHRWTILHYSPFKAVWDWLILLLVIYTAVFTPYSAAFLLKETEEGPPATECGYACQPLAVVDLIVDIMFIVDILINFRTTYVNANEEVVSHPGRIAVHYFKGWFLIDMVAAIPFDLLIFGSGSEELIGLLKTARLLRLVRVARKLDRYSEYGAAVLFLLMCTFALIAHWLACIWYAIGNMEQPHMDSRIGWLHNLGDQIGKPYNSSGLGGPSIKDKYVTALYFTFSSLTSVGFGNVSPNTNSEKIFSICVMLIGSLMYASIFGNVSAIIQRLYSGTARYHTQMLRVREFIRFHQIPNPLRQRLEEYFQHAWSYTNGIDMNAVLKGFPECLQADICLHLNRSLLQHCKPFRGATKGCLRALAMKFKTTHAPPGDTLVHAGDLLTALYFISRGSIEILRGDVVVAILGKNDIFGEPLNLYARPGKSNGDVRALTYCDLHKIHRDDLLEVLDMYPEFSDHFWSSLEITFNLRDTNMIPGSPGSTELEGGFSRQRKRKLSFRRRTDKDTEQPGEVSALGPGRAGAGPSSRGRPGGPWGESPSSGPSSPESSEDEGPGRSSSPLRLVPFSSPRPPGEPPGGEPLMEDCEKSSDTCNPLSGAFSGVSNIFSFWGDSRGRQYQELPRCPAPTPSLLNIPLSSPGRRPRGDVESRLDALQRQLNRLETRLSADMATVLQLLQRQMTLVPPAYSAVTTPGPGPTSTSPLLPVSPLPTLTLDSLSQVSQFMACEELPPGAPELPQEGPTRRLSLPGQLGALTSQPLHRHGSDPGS

On to `O=C(NCCN1CCC(c2cccc(C(F)(F)F)n2)CC1)C1CCC(F)(F)CC1` [Example 1, 4,4-Difluoro-N-(2-{4-[6-(trifluoromethyl)pyridin-2-yl]piperidin-1-yl}ethyl)cyclohexane-carboxamide], for which the “Metabolic stability of human liver microsome” value in series [1] worked out at 0.073 mL/min/mg protein; in series [2] it was 0.031 mL/min/mg protein. Moreover, the “enhancement effect of decreasing the number of the buried marbles compared with single administration of escitalopram” value in the series on ICR male mouse (combination with escitalopram, 0.3 mg/kg administration) is reported as 43.8%. Besides, the “decrease of the buried marbles for the solvent-administration group” value with ICR male mouse (intraperitoneal, 0.5 mg/kg administration) was found to be 44.8%. Further, the Emax was 96% on human 5-HT1A receptor (setting [6]) and 67% on human D4 receptor [5] (setting [6]). For the same compound, the 50% effective concentration (EC50) on human 5-HT1A receptor (setting [7]) was less than 10 nM; at human D4 receptor [5] (setting [7]), 11.9 nM. For the same compound, the half-life in series [3] was 24 h. Besides, at hERG channel, the IC50 was determined as 2500 nM. In addition, the Ki on human D4 receptor [4] came out at 11 nM.

The values are drawn from US10800755B2, “2,6-disubstituted pyridine derivative” (Sumitomo Dainippon Pharma Co., Ltd., priority 2017, dated 2020).
